Reference: ChEMBL document CHEMBL3351764, “Design, synthesis and biological activity of flavonoid derivatives as selective agonists for neuromedin U 2 receptor” (Bioorg Med Chem, 2014)
Calls of active or inactive are those of the source.

Legend:
[1] = molecular target: D(1B) dopamine receptor (Homo sapiens) (UniProt P21918); assay: Agonist activity at human D5 receptor at 100 uM to 5 mM
[2] = molecular target: Glucagon receptor (Homo sapiens) (UniProt P47871); assay: Agonist activity at human Glu receptor at 100 uM to 5 mM
[3] = molecular target: Melanocyte-stimulating hormone receptor (Homo sapiens) (UniProt Q01726); assay: Agonist activity at human MC1 receptor at 100 uM to 5 mM
[4] = molecular target: T1, Muscarinic acetylcholine receptor M1 (Homo sapiens) (UniProt P11229); assay: Agonist activity at human M1 receptor at 100 uM to 5 mM
T1 sequence (whole entry): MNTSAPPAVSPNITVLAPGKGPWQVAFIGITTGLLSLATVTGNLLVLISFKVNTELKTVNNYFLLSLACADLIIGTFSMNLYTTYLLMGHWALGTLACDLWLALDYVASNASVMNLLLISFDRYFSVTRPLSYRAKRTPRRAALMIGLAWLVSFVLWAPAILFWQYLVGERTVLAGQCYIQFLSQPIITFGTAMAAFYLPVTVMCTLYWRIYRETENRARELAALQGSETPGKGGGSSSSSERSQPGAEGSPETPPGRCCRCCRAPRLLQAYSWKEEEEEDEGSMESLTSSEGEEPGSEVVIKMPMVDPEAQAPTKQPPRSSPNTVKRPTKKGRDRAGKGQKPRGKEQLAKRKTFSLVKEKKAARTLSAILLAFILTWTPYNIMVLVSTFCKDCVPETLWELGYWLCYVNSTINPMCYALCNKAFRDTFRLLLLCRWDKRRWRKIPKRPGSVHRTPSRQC

[5] = molecular target: Adenosine receptor A2a (Homo sapiens) (UniProt P29274); assay: Agonist activity at human A2a receptor at 100 uM to 5 mM
[6] = molecular target: Melanocortin receptor 4 (Mus musculus) (UniProt P56450); assay: Agonist activity at mouse MC4 receptor at 100 uM to 5 mM
[7] = molecular target: Melanocortin receptor 4 (Homo sapiens) (UniProt P32245); assay: Agonist activity at human MC4 receptor at 100 uM to 5 mM
[8] = molecular target: T2, C5a anaphylatoxin chemotactic receptor 1 (Homo sapiens) (UniProt P21730); assay: Agonist activity at human C5a receptor at 100 uM to 5 mM
T2 sequence (whole entry): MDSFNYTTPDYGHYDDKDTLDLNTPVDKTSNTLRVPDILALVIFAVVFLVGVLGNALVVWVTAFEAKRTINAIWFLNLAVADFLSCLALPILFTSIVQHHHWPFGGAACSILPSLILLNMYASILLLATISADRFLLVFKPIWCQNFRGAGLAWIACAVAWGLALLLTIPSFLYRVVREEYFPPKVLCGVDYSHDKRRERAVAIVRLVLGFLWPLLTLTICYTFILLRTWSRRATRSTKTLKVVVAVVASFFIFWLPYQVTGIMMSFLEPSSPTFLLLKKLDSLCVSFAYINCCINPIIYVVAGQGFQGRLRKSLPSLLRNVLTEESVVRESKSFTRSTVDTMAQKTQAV

[9] = molecular target: T3, Adenosine receptor A3 (Homo sapiens) (UniProt P0DMS8); assay: Agonist activity at human A3 receptor at 100 uM to 5 mM
T3 sequence (whole entry): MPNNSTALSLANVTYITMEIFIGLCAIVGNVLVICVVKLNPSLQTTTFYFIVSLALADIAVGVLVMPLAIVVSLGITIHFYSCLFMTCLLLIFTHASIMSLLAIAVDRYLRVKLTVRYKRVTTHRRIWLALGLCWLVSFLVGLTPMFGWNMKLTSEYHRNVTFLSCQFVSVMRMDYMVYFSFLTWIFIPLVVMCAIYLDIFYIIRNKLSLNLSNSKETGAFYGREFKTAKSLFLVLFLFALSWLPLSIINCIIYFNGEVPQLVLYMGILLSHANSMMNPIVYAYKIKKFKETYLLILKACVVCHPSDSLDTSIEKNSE

[10] = molecular target: D(1A) dopamine receptor (Homo sapiens) (UniProt P21728); assay: Agonist activity at human D1 receptor at 100 uM to 5 mM
[11] = molecular target: Adrenocorticotropic hormone receptor (Mus musculus) (UniProt Q64326); assay: Agonist activity at mouse MC2 receptor at 100 uM to 5 mM
[12] = molecular target: Melanocortin receptor 5 (Mus musculus) (UniProt P41149); assay: Agonist activity at mouse MC5 receptor at 100 uM to 5 mM
[13] = molecular target: Adrenocorticotropic hormone receptor (Homo sapiens) (UniProt Q01718); assay: Agonist activity at human MC2 receptor at 100 uM to 5 mM
[14] = molecular target: T4, Neuropeptide Y receptor type 5 (Homo sapiens) (UniProt Q15761); assay: Agonist activity at human NPY5 receptor at 100 uM to 5 mM
T4 sequence (whole entry): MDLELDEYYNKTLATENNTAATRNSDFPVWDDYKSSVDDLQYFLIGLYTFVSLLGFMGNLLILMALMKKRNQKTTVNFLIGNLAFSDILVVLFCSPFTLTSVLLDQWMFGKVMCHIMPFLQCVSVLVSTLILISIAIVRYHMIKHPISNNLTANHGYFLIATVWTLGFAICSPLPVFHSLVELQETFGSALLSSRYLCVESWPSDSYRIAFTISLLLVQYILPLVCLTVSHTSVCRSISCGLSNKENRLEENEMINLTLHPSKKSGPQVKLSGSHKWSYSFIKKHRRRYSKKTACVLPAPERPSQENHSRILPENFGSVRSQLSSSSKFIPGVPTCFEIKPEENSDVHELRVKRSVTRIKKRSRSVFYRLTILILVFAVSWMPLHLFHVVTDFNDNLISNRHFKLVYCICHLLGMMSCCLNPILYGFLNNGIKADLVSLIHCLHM

Measured: Activity

Melanocortin receptor 5 (Mus musculus), sequence (P41149 whole entry): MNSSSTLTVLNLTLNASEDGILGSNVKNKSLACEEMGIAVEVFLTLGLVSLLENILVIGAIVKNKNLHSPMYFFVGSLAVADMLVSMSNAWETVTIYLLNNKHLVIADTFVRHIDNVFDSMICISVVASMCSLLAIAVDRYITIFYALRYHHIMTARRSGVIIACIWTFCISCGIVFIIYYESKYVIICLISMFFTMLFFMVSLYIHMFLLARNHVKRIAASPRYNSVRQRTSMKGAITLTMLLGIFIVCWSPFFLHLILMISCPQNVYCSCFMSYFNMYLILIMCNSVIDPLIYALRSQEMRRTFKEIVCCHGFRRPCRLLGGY
Adrenocorticotropic hormone receptor (Homo sapiens), sequence (Q01718 whole entry): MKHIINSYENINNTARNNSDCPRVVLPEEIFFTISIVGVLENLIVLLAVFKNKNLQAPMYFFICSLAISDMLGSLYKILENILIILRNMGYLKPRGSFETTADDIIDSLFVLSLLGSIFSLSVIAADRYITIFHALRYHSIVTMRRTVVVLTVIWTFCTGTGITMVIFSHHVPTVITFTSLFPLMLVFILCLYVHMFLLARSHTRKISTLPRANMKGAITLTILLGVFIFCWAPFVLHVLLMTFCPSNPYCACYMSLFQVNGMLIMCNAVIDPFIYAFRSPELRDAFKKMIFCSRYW
Melanocyte-stimulating hormone receptor (Homo sapiens), sequence (Q01726 whole entry, looked up): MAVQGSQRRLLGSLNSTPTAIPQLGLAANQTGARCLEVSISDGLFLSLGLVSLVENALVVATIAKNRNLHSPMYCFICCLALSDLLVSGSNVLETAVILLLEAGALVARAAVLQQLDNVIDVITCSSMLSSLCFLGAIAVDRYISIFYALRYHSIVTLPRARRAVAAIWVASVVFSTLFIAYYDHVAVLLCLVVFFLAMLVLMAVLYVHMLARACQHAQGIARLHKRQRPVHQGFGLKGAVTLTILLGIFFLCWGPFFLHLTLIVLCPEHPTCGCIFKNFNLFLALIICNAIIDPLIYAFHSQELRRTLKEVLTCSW
D(1A) dopamine receptor (Homo sapiens), sequence (P21728 whole entry): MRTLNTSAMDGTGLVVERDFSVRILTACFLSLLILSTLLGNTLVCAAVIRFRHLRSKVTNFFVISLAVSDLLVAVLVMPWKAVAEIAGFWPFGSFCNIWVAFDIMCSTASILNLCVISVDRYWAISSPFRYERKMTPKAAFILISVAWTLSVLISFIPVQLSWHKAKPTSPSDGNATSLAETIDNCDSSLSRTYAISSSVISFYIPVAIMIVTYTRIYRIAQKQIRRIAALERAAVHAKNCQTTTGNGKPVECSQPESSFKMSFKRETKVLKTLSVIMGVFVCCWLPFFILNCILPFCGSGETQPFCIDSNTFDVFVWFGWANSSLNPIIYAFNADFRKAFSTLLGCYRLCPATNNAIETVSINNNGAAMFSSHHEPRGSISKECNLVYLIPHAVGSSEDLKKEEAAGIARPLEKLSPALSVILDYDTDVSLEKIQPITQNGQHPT
Melanocortin receptor 4 (Mus musculus), sequence (P56450 whole entry): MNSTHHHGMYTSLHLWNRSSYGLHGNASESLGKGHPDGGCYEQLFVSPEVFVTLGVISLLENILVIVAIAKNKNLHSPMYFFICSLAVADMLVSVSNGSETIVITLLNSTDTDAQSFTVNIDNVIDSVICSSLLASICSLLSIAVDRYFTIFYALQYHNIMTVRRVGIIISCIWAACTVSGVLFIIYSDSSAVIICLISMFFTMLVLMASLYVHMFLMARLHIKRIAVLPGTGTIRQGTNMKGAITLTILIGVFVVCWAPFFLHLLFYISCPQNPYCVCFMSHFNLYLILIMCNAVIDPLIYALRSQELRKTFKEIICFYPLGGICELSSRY
Melanocortin receptor 4 (Homo sapiens), sequence (P32245 whole entry): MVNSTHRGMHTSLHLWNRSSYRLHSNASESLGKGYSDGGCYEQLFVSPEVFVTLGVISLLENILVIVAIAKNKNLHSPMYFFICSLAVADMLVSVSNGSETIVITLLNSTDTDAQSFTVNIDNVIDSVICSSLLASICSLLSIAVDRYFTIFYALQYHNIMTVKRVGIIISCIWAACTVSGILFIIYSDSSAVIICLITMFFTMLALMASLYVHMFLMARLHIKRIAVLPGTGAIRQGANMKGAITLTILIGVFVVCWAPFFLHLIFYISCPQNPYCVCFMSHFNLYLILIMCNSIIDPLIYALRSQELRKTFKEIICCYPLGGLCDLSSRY
Glucagon receptor (Homo sapiens), sequence (P47871 whole entry): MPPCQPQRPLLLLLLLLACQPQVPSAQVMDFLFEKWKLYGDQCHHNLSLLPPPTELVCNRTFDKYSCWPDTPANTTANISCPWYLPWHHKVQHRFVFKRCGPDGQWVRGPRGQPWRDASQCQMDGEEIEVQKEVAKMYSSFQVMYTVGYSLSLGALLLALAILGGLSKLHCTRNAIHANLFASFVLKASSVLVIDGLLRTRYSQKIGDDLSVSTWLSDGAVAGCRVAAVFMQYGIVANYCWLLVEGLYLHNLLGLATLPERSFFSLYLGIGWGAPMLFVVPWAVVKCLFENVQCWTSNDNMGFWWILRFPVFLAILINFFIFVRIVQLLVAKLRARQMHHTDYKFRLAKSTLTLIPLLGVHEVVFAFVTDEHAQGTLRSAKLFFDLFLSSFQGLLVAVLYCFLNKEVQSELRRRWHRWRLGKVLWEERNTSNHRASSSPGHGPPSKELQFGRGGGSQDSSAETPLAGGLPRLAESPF
Adenosine receptor A2a (Homo sapiens), sequence (P29274 whole entry): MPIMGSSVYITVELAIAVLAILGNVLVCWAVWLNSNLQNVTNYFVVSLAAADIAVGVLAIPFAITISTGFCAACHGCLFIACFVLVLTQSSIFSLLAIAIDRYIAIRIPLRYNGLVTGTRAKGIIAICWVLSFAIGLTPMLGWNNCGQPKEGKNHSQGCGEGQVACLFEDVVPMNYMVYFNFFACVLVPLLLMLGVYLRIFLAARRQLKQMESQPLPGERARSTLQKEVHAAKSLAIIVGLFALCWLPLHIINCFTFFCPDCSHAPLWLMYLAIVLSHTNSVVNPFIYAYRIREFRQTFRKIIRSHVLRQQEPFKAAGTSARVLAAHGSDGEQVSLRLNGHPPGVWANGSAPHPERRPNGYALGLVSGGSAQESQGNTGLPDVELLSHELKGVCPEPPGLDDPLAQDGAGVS
D(1B) dopamine receptor (Homo sapiens), sequence (P21918 whole entry): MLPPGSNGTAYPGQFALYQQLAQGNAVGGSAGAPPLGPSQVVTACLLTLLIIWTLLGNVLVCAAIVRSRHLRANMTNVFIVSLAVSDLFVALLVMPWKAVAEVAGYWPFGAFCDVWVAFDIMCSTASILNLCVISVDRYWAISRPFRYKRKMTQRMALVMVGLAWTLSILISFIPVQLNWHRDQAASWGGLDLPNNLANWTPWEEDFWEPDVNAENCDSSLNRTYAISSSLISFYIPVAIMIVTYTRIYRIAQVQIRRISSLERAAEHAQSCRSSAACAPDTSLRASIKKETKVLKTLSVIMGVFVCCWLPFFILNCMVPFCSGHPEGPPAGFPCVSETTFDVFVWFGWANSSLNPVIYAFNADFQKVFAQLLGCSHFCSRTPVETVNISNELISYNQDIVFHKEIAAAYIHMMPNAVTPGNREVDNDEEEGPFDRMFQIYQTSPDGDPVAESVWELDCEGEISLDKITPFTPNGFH
Adrenocorticotropic hormone receptor (Mus musculus), sequence (Q64326 whole entry): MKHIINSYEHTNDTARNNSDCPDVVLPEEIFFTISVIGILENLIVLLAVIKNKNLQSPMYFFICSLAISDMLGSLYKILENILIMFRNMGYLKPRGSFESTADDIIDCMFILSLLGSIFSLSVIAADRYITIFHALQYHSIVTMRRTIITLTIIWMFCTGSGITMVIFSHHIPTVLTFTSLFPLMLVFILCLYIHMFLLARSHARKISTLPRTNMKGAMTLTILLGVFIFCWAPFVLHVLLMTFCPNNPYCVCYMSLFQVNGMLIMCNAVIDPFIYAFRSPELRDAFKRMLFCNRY

O=c1c(O)c(-c2ccc(Br)cc2F)oc2ccccc12
inactive: all assays above

COc1ccc(F)c(-c2oc3ccccc3c(=O)c2O)c1
inactive: all assays above

O=c1c(O)c(-c2c(F)ccc(F)c2Cl)oc2ccccc12
inactive: all assays above

COc1ccc(C2C=Cc3ccccc3O2)cc1 (racemic)
inactive: all assays above

Clc1ccc(C2C=Cc3ccccc3O2)c(Cl)c1 (racemic)
inactive: all assays above

COc1ccc(C2C=Cc3ccccc3O2)cc1O (racemic)
inactive: all assays above

CN(C)c1ccc(-c2oc3ccccc3c(=O)c2O)cc1
inactive: all assays above

O=c1c(O)c(-c2ccccc2F)oc2ccccc12
inactive: all assays above

COc1ccc(-c2oc3ccccc3c(=O)c2O)cc1O
inactive: all assays above

O=c1c(O)c(-c2ccc(Cl)cc2Cl)oc2ccccc12
inactive: all assays above

COc1cccc(-c2oc3ccccc3c(=O)c2O)c1
inactive: all assays above

O=c1c(O)c(-c2cccc(Br)c2)oc2ccccc12
inactive: all assays above

CCOC(=O)COc1c(-c2cc(Br)ccc2F)oc2ccccc2c1=O
inactive: all assays above
